From patent US9216985B2, “3-aryl-2-((arylamino)methyl)quinazolin-4-(3H)-ones” (SciFluor Life Sciences, Inc., priority 2013, dated 2015)

How the values were obtained:
[1] = biological target: PI3Kγ (Homo sapiens (Human), UniProt P48736); assay: Homogeneous Time Resolved Fluorescence (HTRF) lipid kinase assay; assay type: biochemical; conditions: HTRF format, 10 μM ATP
Description: (§1) The ability of the compounds of the present invention to inhibit the activity of four PI3K isoforms, PI3Kα, PI3Kβ, PI3Kγ, and PI3Kδ, were determined using a commercially available lipid kinase assay run in Homogeneous Time Resolved Fluorescence (HTRF) format.
(§2) Assay principle: The PIP3 product is detected by displacement of biotin-PIP3 from an energy transfer complex consisting of Europium labeled anti-GST monoclonal antibody, a GST-tagged pleckstrin homology (PH) domain, biotinylated PIP3 and Streptavidin-Allophycocyanin (APC). Excitation of Europium in the complex results in an energy transfer to the APC and a fluorescent emission at 665 nm. The PIP3 product formed by PI 3-Kinase(h) activity displaces biotin-PIP3 from the complex resulting in a loss of energy transfer and thus a decrease in signal.
(§3) This is a 3-step reaction: First, the kinase reaction with PIP2 substrate is carried out in the presence of ATP, and the reaction is quenched with stop Solution, and then finally detect by adding Detection Mixture followed by incubation.
(§4) Assay Buffer: HEPES 50 mM (pH7.0), NaN3 0.02%, BSA 0.01%, Orthovanadate 0.1 mM, 1% DMSO.
(§5) Detection buffer: HEPES 10 mM (pH7.0), BSA 0.02%, KF 0.16 M, EDTA 4 mM.
(§6) Substrate: […] PIP2 substrate (PI(4,5)P2)
(§7) ATP: 10 μM ATP under standard conditions
(§8) Control Inhibitor: PI-103
(§9) • 1. Prepare substrate in freshly prepared Reaction Buffer • 2. Deliver kinase into the substrate solution and gently mix • 3. Deliver compounds in 100% DMSO into the kinase reaction mixture by Acoustic technology (Echo550; nanolitter range), incubate for 10 min at room temp • 4. Deliver ATP into the reaction mixture to initiate the reaction • 5. Incubate for 30 min at 30° C. • 6. Quench the reaction with Stop Solution. • 7. Add Detection Mixture, and incubate for overnight. • 8. Measure HTRF: Ex=320 nm, ratio of Em=615 nm and Em=665 nm. Data Analysis:
(§10) The emission ratio is converted into μM PIP3 production based on PIP3 standard curves. The nonlinear regression to obtain the standard curve and IC50 values are performed using Graphpad Prism software.

[2] = biological target: PI3Kβ (Homo sapiens (Human), UniProt P42338); assay: as above; assay type: biochemical; conditions: HTRF format, 10 μM ATP
Chain of PI3Kβ (P42338 whole entry): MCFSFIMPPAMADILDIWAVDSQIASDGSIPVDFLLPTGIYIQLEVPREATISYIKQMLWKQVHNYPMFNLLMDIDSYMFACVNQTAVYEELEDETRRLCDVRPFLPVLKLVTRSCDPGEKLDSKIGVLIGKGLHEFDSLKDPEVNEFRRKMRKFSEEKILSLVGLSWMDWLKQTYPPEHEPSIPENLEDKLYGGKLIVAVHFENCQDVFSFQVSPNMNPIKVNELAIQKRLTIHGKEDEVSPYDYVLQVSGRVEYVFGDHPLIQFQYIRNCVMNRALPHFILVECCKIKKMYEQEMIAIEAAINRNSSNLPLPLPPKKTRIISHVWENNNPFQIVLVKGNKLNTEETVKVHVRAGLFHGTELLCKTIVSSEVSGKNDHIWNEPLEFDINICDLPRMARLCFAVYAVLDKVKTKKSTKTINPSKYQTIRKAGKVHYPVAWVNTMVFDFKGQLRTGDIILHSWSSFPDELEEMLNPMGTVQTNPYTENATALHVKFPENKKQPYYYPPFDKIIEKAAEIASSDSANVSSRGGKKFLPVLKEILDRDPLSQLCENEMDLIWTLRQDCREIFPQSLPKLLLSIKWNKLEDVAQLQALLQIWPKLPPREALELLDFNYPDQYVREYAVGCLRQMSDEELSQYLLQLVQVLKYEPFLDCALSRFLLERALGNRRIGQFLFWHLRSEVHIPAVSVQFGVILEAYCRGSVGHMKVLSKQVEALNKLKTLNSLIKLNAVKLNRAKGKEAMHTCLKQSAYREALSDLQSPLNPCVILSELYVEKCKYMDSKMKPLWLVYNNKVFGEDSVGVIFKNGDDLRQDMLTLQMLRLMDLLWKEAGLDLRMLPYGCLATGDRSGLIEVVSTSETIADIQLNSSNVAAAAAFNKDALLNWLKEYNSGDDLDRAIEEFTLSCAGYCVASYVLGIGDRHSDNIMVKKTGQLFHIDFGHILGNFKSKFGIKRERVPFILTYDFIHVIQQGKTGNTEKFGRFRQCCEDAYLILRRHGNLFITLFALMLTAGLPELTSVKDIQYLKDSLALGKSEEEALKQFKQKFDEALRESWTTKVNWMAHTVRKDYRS
Chain of PI3Kβ (P27986 whole entry partner): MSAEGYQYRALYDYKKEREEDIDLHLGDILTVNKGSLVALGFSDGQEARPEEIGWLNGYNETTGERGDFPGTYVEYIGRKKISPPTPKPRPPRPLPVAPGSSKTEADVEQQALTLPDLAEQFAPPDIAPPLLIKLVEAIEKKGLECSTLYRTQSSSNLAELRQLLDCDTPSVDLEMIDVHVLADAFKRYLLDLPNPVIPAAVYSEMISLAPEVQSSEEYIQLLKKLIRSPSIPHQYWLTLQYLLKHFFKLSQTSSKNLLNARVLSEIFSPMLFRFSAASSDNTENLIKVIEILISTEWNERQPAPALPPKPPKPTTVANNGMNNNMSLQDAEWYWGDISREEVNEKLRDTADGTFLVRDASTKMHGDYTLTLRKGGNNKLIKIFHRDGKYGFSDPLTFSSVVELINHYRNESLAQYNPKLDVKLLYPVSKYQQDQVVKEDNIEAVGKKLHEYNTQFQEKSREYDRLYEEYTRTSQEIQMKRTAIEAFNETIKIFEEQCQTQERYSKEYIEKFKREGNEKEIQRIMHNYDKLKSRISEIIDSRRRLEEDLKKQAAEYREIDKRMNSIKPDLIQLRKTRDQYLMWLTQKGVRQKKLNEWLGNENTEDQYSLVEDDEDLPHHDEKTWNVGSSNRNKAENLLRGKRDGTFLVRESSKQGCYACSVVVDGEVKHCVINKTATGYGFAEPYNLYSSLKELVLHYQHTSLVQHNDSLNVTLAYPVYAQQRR
Description: as §1, §2, §3, §4, §5, §6, §7, §8, §9, §10

[3] = biological target: PI3Kα (Homo sapiens (Human), UniProt P42336); assay: as above; assay type: biochemical; conditions: HTRF format, 10 μM ATP
Chain of PI3Kα (P42336 whole entry): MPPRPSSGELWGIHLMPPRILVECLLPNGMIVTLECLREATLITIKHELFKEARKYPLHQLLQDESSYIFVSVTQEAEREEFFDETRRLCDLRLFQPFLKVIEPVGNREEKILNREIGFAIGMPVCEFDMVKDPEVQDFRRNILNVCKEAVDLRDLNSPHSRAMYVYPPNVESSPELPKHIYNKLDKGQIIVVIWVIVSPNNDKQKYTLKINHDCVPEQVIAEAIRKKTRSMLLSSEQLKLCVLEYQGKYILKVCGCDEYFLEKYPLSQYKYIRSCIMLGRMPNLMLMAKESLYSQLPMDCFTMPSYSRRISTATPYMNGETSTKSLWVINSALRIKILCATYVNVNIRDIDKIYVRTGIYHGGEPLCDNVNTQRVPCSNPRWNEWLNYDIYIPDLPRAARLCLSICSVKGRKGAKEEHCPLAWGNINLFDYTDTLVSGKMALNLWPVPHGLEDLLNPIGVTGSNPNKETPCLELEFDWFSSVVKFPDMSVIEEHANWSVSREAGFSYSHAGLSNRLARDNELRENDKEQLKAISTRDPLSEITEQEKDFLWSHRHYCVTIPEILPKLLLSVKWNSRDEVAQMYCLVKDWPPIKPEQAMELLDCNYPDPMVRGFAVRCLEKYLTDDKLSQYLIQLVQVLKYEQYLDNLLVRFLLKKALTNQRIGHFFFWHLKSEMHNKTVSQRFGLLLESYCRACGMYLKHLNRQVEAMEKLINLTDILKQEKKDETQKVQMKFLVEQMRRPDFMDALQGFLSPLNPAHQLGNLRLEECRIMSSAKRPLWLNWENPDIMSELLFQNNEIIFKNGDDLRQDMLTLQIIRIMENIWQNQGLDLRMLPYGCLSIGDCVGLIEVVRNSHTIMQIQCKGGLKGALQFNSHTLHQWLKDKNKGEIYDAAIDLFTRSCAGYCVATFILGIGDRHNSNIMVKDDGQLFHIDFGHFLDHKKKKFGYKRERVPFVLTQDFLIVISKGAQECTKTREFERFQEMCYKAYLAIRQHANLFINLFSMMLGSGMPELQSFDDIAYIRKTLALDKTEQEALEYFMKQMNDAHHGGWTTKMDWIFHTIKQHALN
Chain of PI3Kα (P27986 whole entry partner): as the sequence (P27986 whole entry partner) above
Description: as §1, §2, §3, §4, §5, §6, §7, §8, §9, §10

[4] = biological target: PI3Kδ (Homo sapiens (Human), UniProt O00329); assay: as above; assay type: biochemical; conditions: HTRF format, 10 μM ATP
Chain of PI3Kδ (O00329 whole entry): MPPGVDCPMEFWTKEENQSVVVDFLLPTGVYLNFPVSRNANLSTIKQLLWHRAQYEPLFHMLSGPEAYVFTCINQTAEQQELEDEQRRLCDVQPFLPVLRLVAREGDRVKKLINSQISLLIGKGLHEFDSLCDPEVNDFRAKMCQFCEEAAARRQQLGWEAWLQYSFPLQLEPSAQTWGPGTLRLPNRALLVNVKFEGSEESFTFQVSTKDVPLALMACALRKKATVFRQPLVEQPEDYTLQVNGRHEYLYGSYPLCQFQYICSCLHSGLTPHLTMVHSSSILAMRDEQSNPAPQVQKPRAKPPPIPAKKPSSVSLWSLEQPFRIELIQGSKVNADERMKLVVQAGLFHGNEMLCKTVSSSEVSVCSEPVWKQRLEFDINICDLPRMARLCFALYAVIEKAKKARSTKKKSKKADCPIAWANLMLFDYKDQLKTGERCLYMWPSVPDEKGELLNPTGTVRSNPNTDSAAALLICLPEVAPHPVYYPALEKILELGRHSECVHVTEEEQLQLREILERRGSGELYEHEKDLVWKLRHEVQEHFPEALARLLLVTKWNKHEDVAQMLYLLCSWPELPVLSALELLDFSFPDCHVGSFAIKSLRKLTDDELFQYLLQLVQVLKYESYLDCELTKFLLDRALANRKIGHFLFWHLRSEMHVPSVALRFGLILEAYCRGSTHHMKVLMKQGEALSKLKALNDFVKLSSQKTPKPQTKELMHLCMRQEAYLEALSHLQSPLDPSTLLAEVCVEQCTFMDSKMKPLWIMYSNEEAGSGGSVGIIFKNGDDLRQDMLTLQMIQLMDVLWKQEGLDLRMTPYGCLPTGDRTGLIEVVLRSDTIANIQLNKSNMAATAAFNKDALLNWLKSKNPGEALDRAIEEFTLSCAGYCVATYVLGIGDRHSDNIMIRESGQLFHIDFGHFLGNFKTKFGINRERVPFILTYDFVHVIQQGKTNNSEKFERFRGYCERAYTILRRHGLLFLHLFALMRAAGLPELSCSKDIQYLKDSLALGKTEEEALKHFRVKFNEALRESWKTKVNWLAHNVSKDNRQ
Chain of PI3Kδ (P27986 whole entry partner): as the sequence (P27986 whole entry partner) above
Description: as §1, §2, §3, §4, §5, §6, §7, §8, §9, §10

[5] = biological target: PI3Kδ human fl (Homo sapiens (Human), UniProt O00329); assay: Reporter displacement assay; assay type: binding
Description: (§11) The ability of the compounds of the present invention to inhibit the activity of four PI3K isoforms, PI3Kα, PI3Kβ, PI3Kγ, and PI3Kδ, were determined using the commercially available reporter displacement assay that is based on reporter probes that are designed to bind to the site of interest of the target protein. The proximity between reporter and protein results in the emission of an optical signal. Compounds that bind to the same site as the reporter probe displace the probe, causing signal diminution. Reporter displacement is measured over time after addition of compounds at various concentrations. The assay conditions were:
(§12) Assay plates: 384 well U bottom, PP, black, low volume (Corning, 3676)
(§13) Full probe displacement: absence of enzyme and compound
(§14) Full probe binding: absence of compound
(§15) Reaction buffer: 20 mM Mops, pH 7.01 mM DTT, 0.01% Tween 20

[6] = biological target: PI3Kγ human (144-1102) (Homo sapiens (Human), UniProt P48736); assay: Reporter displacement assay; assay type: binding
Description: as §11, §12, §13, §14, §15

[7] = biological target: PI3Kα human fl (Homo sapiens (Human), UniProt P42336); assay: Reporter displacement assay; assay type: binding
Description: as §11, §12, §13, §14, §15

[8] = biological target: PI3Kβ human (1-1070) (Homo sapiens (Human), UniProt P42338); assay: Reporter displacement assay; assay type: binding
Description: as §11, §12, §13, §14, §15

Chain of PI3Kγ (P48736 whole entry, canonical isoform): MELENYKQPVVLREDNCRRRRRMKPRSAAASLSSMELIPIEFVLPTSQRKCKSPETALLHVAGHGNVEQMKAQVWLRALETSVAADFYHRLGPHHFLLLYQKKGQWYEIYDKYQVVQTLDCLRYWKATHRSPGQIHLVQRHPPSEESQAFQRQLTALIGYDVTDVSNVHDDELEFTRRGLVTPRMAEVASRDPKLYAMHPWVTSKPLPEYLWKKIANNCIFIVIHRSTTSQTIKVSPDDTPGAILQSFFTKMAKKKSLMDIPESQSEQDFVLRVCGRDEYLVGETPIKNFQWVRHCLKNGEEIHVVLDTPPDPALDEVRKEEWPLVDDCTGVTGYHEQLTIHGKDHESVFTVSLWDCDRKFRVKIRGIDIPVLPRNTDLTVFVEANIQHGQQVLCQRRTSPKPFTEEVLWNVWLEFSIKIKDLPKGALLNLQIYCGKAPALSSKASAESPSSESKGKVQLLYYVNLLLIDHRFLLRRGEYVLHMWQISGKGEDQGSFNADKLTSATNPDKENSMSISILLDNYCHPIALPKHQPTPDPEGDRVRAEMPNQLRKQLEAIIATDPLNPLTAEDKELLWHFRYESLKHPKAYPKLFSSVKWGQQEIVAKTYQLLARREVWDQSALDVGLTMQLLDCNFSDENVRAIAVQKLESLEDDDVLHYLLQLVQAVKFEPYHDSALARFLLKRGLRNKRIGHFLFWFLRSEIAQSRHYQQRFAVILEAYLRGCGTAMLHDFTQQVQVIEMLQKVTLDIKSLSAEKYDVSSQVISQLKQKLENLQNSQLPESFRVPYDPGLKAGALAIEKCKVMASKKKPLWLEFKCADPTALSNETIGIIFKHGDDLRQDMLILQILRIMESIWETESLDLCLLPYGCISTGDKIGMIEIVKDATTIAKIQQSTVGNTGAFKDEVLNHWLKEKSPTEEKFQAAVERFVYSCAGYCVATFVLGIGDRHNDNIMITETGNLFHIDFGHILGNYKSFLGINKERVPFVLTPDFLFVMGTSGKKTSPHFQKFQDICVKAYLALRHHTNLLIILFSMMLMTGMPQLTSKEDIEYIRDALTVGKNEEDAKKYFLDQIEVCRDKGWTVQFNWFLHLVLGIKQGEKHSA

SMILES | IC50 [1] | IC50 [2] | IC50 [3] | IC50 [4] | IC50 [5] | IC50 [6] | IC50 [7] | IC50 [8]
CC[C@H](Nc1ncnc2[nH]ccc12)c1nc2cccc(F)c2c(=O)n1-c1ccccc1 [Compound 1A, (S)-2-(1-((7H-pyrrolo[2,3-d]pyrimidin-4-yl)amino)propyl)-5-fluoro-3-phenylquinazolin-4(3H)-one] | 1.2 µM | 0.65 µM | 3.7 µM | 0.008 µM | – | – | – | –
CC[C@H](Nc1ncnc2[nH]ccc12)c1nc2cccc(F)c2c(=O)n1-c1ccc(OCC(F)(F)F)cc1 [Compound 16A, (S)-2-(1-((7H-pyrrolo[2,3-d]pyrimidin-4-yl)amino)propyl)-5-fluoro-3-(4-(2,2,2-trifluoroethoxy)phenyl)quinazolin-4(3H)-one] | 5.4 µM | 10.5 µM | – | 0.09 µM | – | – | – | –
C[C@H](Nc1ncnc2[nH]ccc12)c1nc2cccc(F)c2c(=O)n1-c1cccc(OCC(F)(F)C(F)(F)F)c1 [Compound 19A, (S)-2-(1-((7H-pyrrolo[2,3-d]pyrimidin-4-yl)amino)ethyl)-5-fluoro-3-(3-(2,2,3,3,3-pentafluoropropoxy)phenyl)quinazolin-4(3H)-one] | 4.5 µM | > 10 µM | > 10 µM | 0.19 µM | – | – | – | –
C[C@H](Nc1ncnc2[nH]ccc12)c1nc2cccc(Cl)c2c(=O)n1-c1cccc(OCC(F)(F)F)c1 [Compound 20A, (S)-2-(1-((7H-pyrrolo[2,3-d]pyrimidin-4-yl)amino)ethyl)-5-chloro-3-(3-(2,2,2-trifluoroethoxy)phenyl)quinazolin-4(3H)-one] | 0.46 µM | 1.1 µM | 4.1 µM | 0.01 µM | – | – | – | –
C[C@H](Nc1ncnc2[nH]ccc12)c1nc2cccc(F)c2c(=O)n1-c1cccc(OCC(F)F)c1 [Compound 22A, (S)-2-(1-((7H-pyrrolo[2,3-d]pyrimidin-4-yl)amino)ethyl)-3-(3-(2,2-difluoroethoxy)phenyl)-5-fluoroquinazolin-4(3H)-one] | – | – | – | – | 0.02 µM | 1.2 µM | 9.8 µM | 2.1 µM

Continued by falling IC50 [4], values first:

IC50 [1] | IC50 [2] | IC50 [3] | IC50 [4] | IC50 [5] | IC50 [6] | IC50 [7] | IC50 [8] | SMILES
– | > 10 µM | – | 2.1 µM | – | – | – | – | O=c1c2c(F)cccc2nc(CNc2ncnc3[nH]ccc23)n1-c1cccc(OCC(F)(F)F)c1 [Compound 21A, 2-(((7H-pyrrolo[2,3-d]pyrimidin-4-yl)amino)methyl)-5-fluoro-3-(3-(2,2,2-trifluoroethoxy)phenyl)quinazolin-4(3H)-one]
3 µM | – | 115 µM | 0.11 µM | – | – | – | – | CC[C@H](Nc1ncnc2[nH]ccc12)c1nc2cccc(F)c2c(=O)n1-c1cccc(OCC(F)(F)F)c1 [Compound 11A, (S)-2-(1-((7H-pyrrolo[2,3-d]pyrimidin-4-yl)amino)propyl)-5-fluoro-3-(3-(2,2,2-trifluoroethoxy)phenyl)quinazolin-4(3H)-one]
1.8 µM | 3.9 µM | – | 0.08 µM | – | – | – | – | O=c1c2c(F)cccc2nc([C@H](CC(F)(F)F)Nc2ncnc3[nH]cnc23)n1-c1ccccc1 [Compound 2A, (S)-2-(1-((9H-purin-6-yl)amino)-3,3,3-trifluoropropyl)-5-fluoro-3-phenylquinazolin-4(3H)-one]
1.3 µM | 5.8 µM | 28 µM | 0.05 µM | – | – | – | – | CC[C@H](Nc1ncnc2[nH]ccc12)c1nc2cccc(F)c2c(=O)n1-c1cccc(CC(F)(F)F)c1 [Compound 7A, (S)-2-(1-((7H-pyrrolo[2,3-d]pyrimidin-4-yl)amino)propyl)-5-fluoro-3-(3-(2,2,2-trifluoroethyl)phenyl)quinazolin-4(3H)-one]
0.3 µM | 3.1 µM | 15 µM | 0.02 µM | – | – | – | – | CC[C@H](Nc1ncnc2[nH]cnc12)c1nc2cccc(F)c2c(=O)n1-c1cccc(CC(F)(F)F)c1 [Compound 6A, (S)-2-(1-((9H-purin-6-yl)amino)propyl)-5-fluoro-3-(3-(2,2,2-trifluoroethyl)phenyl)quinazolin-4(3H)-one]
0.74 µM | – | – | 0.02 µM | – | – | – | – | CC[C@H](Nc1ncnc2[nH]cnc12)c1nc2cccc(F)c2c(=O)n1-c1cccc(OCC(F)(F)F)c1 [Compound 10A, (S)-2-(1-((9H-purin-6-yl)amino)propyl)-5-fluoro-3-(3-(2,2,2-trifluoroethoxy)phenyl)quinazolin-4(3H)-one]
0.74 µM | 7.3 µM | 9.7 µM | 0.009 µM | – | – | – | – | C[C@H](Nc1ncnc2[nH]ccc12)c1nc2cccc(F)c2c(=O)n1-c1ccc(OCC(F)(F)F)cc1 [Compound 15A, (S)-2-(1-((7H-pyrrolo[2,3-d]pyrimidin-4-yl)amino)ethyl)-5-fluoro-3-(4-(2,2,2-trifluoroethoxy)phenyl)quinazolin-4(3H)-one]
1.2 µM | 3.4 µM | 10 µM | 0.008 µM | – | – | – | – | C[C@H](Nc1ncnc2[nH]cc(F)c12)c1nc2cccc(F)c2c(=O)n1-c1cccc(OCC(F)(F)F)c1 [Compound 17A, (S)-5-fluoro-2-(1-((5-fluoro-7H-pyrrolo[2,3-d]pyrimidin-4-yl)amino)ethyl)-3-(3-(2,2,2-trifluoroethoxy)phenyl)quinazolin-4(3H)-one]
